Data set [1] deals with male Cobb×Cobb 500 broiler chickens. The data set can be described thus: Performance trial in broiler chickens. The format is in vivo, chicken. An excerpt: A chicken, broiler performance trial was completed to understand if granules with different in-vitro dissolution rates would perform differently in an animal model. […] Therefore two different granules were made, one with a fast dissolution, and one with a slow dissolution. […] The experiment used 72 cages of 10 male Cobb×Cobb 500 broiler chickens. The treatments were replicated in eighteen blocks where the four treatments were randomized within each block. All the treatments contained equal amount of zinc and treatments B, C and D had same amount of butyric acid. The diet given in Tables 5 and 6 was supplemented with the treatments in Table 4. The starter diet was fed day 0 to 14 and the grower diet was fed day 14 to 28. All diets were fed as non-pelleted mash feed. Bird weights and feed consumption by cage were recorded on Days 0, 14, 21, 28.

The nature of data set [2]: Butyric acid in intestinal contents and excreta of broilers by gas chromatography. The format is in vivo, chicken. The following applies: day 28, birds fed the supplemented diet. On the procedure:
On days 14 and 28, after weighing, 4 birds per cage were harvested. From each of the harvested birds, a 1 inch section from the beginning of the ileum was cut off and flash frozen. The remaining intestinal tract was cut into 3 sections (upper, middle and cecal), the intestinal contents for each section were pooled by cage, and frozen in liquid nitrogen. A sample of excreta was collected by cage and frozen.
The samples of the feed and intestinal contents were analyzed for butyric acid by gas chromatography.

The mark [3] stands for this setting: after 28 days, supplement in basal diet, 153 ppm zinc.

For the compound `CCCC(=O)[O-].CCCC(=O)[O-].[Zn+2]` [ZBA Powder, zinc salt of butyric acid in a molar ratio of 1:2], in data set [1] (setting [3]), the “Avg. Wt.” value is 1.043 kg, the “Feed Conversion” value is given as 1.589 and the “Feed Intake” value is listed as 11.06. Also, the “butyric acid in the ileal contents” value in data set [2] is “no detectible butyric acid”.
Consider `O=S(=O)([O-])[O-].[Zn+2]` [Zinc Sulfate Powder, Zinc Sulfate, reference compound], for which, in data set [1] (in vivo), the “Avg. Wt.” value turned out to be 1.010 kg, the “Feed Conversion” value was found to be 1.620 and the “Feed Intake” value was found to be 10.93.
